Measurements from patent US20220031800A1, “PEPTIDES FOR TREATING NON-EXUDATIVE MACULAR DEGENERATION AND OTHER DISORDERS OF THE EYE” (Allegro Pharmaceuticals, LLC, priority 2019, published 2022).
Square brackets hold non-standard residues; d marks the D form. Peptide text beside a SMILES is read from it. Cya = N[C@@H](CS(=O)(=O)O)C(=O)O

Tested on: study eye of subjects with intermediate non-exudative AMD
Experiment: SD-OCT Analysis 2 (thickness, volume, map coverage of retinal layers)
Format: in vivo, human
Description: Numerous study assessments were conducted at various time points throughout the study. Included among these study assessments were; refractive eye examinations, determinations of BCVA AND low-luminance BCVA, Lanthony D-15 color vision test, measurement of intraocular pressure (IOP), Indirect ophthalmoscopy/dilated fundus examinations and spectral-domain optical coherence tomography (SD-OCT). Also, blood and saliva samples were obtained from each subject for genetic analysis. The above-listed study assessments were performed at the time points indicated in Table 1, below: The OCT scans were analyzed by two (2) unrelated experts. In Analysis #2, the OCT images of study eyes were analyzed to determine mean thickness and mean volume of numerous retinal subfields and layer segments at baseline and at Week 12 for sham eyes and at baseline and at Week 32 for risuteganib eyes, to document any significant differences between groups of eyes based on baseline measurements or changes from baseline in those measurements. In addition to the quantitative analysis of OCT images, OCT Analysis #2 included qualitative assessment of the OCT images to identify GA, pseudodrusen, and disruption of the ELM and EZ layers. FIGS. 9A, 9B and 9C illustrate the level of varying pathology within the ELM based on quantitative mapping that were also assessed, with FIG. 9A (left) showing no ELM disruption, FIG. 9B (center) showing segmental disruption, and FIG. 9C showing diffuse disruption.

[1] = baseline to Week 32, risuteganib arm
[2] = baseline to Week 32, risuteganib arm, paired-eye analysis
[3] = baseline to Week 32, risuteganib nonresponder eyes
[4] = baseline to Week 32, risuteganib responder eyes
[5] = baseline to Week 32, risuteganib super-responder eyes
[6] = change from baseline at Week 32, Risuteganib Nonresponder eyes
[7] = change from baseline at Week 32, Risuteganib Responder eyes

For `C[C@@H](O)[C@H](NC(=O)[C@H](CS(=O)(=O)O)NC(=O)CNC(=O)[C@H](CCCNC(=N)N)NC(=O)CN)C(=O)N1CCC[C@H]1C(=O)O` [risuteganib, Glycyl-L-arginylglycyl-3-sulfo-L-alanyl-L-threonyl-L-proline] (H-GRG[Cya]TP-OH), the “Change in ELM-RPE mid subfield volume” value [1] was −0.002 mm^3, the “Change in ONL-RPE central subfield volume” value [1] was −0.005 mm^3 and the “Change in ONL-RPE mid subfield volume” value [1] was −0.020 mm^3. For the same molecule, the “Change in mean ONL-RPE mid subfield thickness” value [1] was −6.441 μm, the “Change in mean total retinal mid subfield thickness” value [1] was −2.548 μm and the “Change in total retinal mid subfield volume” value [1] was −0.008 mm^3. The “Difference in map coverage, 0 μm RPE-BM” value [1] was 1.282%, the “Difference in map coverage, 50 μm RPE-BM” value [1] was −2.644% and the “Difference in map coverage, 150 μm RPE-BM” value (shortened to “Difference … 150 μm RPE-BM”) [1] was 2.739%. For the same molecule, the “Change in mean ELM-RPE central subfield thickness” value [2] was −2.912 μm, the “Change in mean ONL-RPE central subfield thickness” value [2] was −7.216 μm and the “Change in ONL-RPE mid subfield volume” value [3] was −0.020 mm^3. For the same molecule, the “Change in RPE-BM volume” value [3] was 0.037 mm^3, the “Change in mean ONL-RPE mid subfield thickness” value [3] was −6.320 μm and the “Change in mean total retinal central subfield thickness” value [3] was −5.981 μm. The “Change in mean total retinal mid subfield thickness” value [3] was −4.046 μm, the “Change in total retinal central subfield volume” value [3] was −0.004 mm^3 and the “Change in total retinal mid subfield volume” value [3] was −0.012 mm^3. The “Change in total retinal volume” value [3] was 0.091 mm^3, the “Difference in map coverage, <10 μm EZ” value [3] was 1.332% and the “Difference in map coverage, <20 μm EZ” value [3] was 1.288%. The “Change in ELM-RPE central subfield volume” value [4] was −0.002 mm^3, the “Change in RPE-BM volume” value [4] was −0.049 mm^3 and the “Difference in map coverage, 50 μm RPE-BM” value [4] was −3.494%. For the same molecule, the “Difference … 150 μm RPE-BM” value [4] was 3.335%, the “Change in mean ELM-RPE central subfield thickness” value (baseline to Week 32, risuteganib responder eyes, paired-eye analysis) was −3.102 μm and the “Change in ELM-RPE central subfield volume” value [5] was −0.003 mm^3. For the same molecule, the “Difference … 150 μm RPE-BM” value [5] was 2.943%, the “Change in mean ELM-RPE central subfield thickness” value (baseline to Week 32, risuteganib super-responder eyes, paired-eye analysis) was −3.461 μm and the “Change in mean thickness, ELM-EZ central subfield” value [6] was −1.332 μm. The “Change in mean thickness, ELM-EZ mid subfield” value [6] was 0.754 μm, the “Change in mean thickness, ELM-RPE central subfield” value [6] was −2.722 μm and the “Change in mean thickness, ELM-RPE foveal center” value [6] was −12.189 μm. The “Change in mean thickness, ELM-RPE mid subfield” value [6] was −1.044 μm, the “Change in mean thickness, EZ-RPE central subfield” value [6] was −1.390 μm and the “Change in mean thickness, EZ-RPE foveal center” value [6] was −1.789 μm. The “Change in mean thickness, EZ-RPE mid subfield” value [6] was −1.798 μm, the “Change in mean thickness, Inner retina central subfield” value [6] was 1.896 μm and the “Change in mean thickness, Inner retina mid subfield” value [6] was 2.274 μm. For the same molecule, the “Change in mean thickness, ONL-EZ central subfield” value [6] was −6.486 μm, the “Change in mean thickness, ONL-EZ mid subfield” value [6] was −4.522 μm and the “Change in mean thickness, ONL-RPE central subfield” value [6] was −7.877 μm. For the same molecule, the “Change in mean thickness, ONL-RPE foveal center” value [6] was −7.626 μm, the “Change in mean thickness, ONL-RPE mid subfield” value [6] was −6.320 μm and the “Change in mean thickness, RPE-BM central subfield” value [6] was −0.118 μm. For the same molecule, the “Change in mean thickness, RPE-BM foveal center” value [6] was −3.740 μm, the “Change in mean thickness, RPE-BM mid subfield” value [6] was 1.114 μm and the “Change in mean thickness, Total retinal central subfield” value [6] was −5.981 μm. For the same molecule, the “Change in mean thickness, Total retinal foveal center” value [6] was −9.112 μm, the “Change in mean thickness, Total retinal mid subfield” value [6] was −4.046 μm and the “Change in volume, ELM-EZ central subfield” value [6] was −0.001 mm^3. The “Change in volume, ELM-EZ mid subfield” value [6] was 0.002 mm^3, the “Change in volume, ELM-RPE” value [6] was 0.009 mm^3 and the “Change in volume, ELM-RPE central subfield” value [6] was −0.002 mm^3. For the same molecule, the “Change in volume, ELM-RPE mid subfield” value [6] was −0.003 mm^3, the “Change in volume, EZ-RPE” value [6] was 0.005 mm^3 and the “Change in volume, EZ-RPE central subfield” value [6] was −0.001 mm^3. For the same molecule, the “Change in volume, EZ-RPE mid subfield” value [6] was −0.006 mm^3, the “Change in volume, ONL-EZ central subfield” value [6] was −0.005 mm^3 and the “Change in volume, ONL-EZ mid subfield” value [6] was −0.014 mm^3. For the same molecule, the “Change in volume, ONL-RPE” value [6] was −0.026 mm^3, the “Change in volume, ONL-RPE central subfield” value [6] was −0.006 mm^3 and the “Change in volume, ONL-RPE mid subfield” value [6] was −0.020 mm^3. For the same molecule, the “Change in volume, RPE-BM” value [6] was 0.037 mm^3, the “Change in volume, RPE-BM central subfield” value [6] was 0.000 mm^3 and the “Change in volume, RPE-BM mid subfield” value [6] was 0.004 mm^3. The “Change in volume, Total retinal” value [6] was 0.091 mm^3, the “Change in volume, Total retinal central subfield” value [6] was −0.004 mm^3 and the “Change in volume, Total retinal mid subfield” value [6] was −0.012 mm^3. The “Map coverage, 0 μm EZ” value [6] was 1.469%, the “Map coverage, 0 μm RPE-BM” value [6] was 1.465% and the “Map coverage, 10 μm EZ” value [6] was 1.332%. For the same molecule, the “Map coverage, 20 μm EZ” value [6] was 1.288%, the “Map coverage, 50 μm RPE-BM” value [6] was −1.794% and the “Map coverage, 150 μm RPE-BM” value [6] was 2.143%. For the same molecule, the “Map coverage, 250 μm RPE-BM” value [6] was 0.000%, the “Change in mean thickness, ELM-EZ central subfield” value [7] was −2.322 μm and the “Change in mean thickness, ELM-EZ mid subfield” value [7] was −0.967 μm. The “Change in mean thickness, ELM-RPE central subfield” value [7] was −3.102 μm, the “Change in mean thickness, ELM-RPE foveal center” value [7] was 0.000 μm and the “Change in mean thickness, ELM-RPE mid subfield” value [7] was −2.141 μm. For the same molecule, the “Change in mean thickness, EZ-RPE central subfield” value [7] was −0.779 μm, the “Change in mean thickness, EZ-RPE foveal center” value [7] was 0.975 μm and the “Change in mean thickness, EZ-RPE mid subfield” value [7] was −1.174 μm. For the same molecule, the “Change in mean thickness, Inner retina central subfield” value [7] was 5.864 μm, the “Change in mean thickness, Inner retina mid subfield” value [7] was 5.512 μm and the “Change in mean thickness, ONL-EZ central subfield” value [7] was −5.775 μm. For the same molecule, the “Change in mean thickness, ONL-EZ mid subfield” value [7] was −5.386 μm and the “Change in mean thickness, ONL-RPE central subfield” value [7] was −6.555 μm.
